Measurements as given in ChEMBL document CHEMBL1201861, “Genomics of Drug Sensitity in Cancer screening data, Wellcome Trust Sanger Institute”.
pIC50: −log10 of the molar value.

Experiments:
Assay in all cases: cells
Type in all cases: functional, cell-based, Homo sapiens
COLO-829 = details: Homo sapiens, COLO-829
Description: SANGER: Inhibition of human COLO-829 cell growth in a cell viability assay.

CP66-MEL = details: Homo sapiens, CP66-MEL
Description: SANGER: Inhibition of human CP66-MEL cell growth in a cell viability assay.

CTV-1 = details: Homo sapiens, CTV-1
Description: SANGER: Inhibition of human CTV-1 cell growth in a cell viability assay.

D283 Med = details: Homo sapiens, D283 Med
Description: SANGER: Inhibition of human D-283MED cell growth in a cell viability assay.

DJM-1 = details: Homo sapiens, DJM-1
Description: SANGER: Inhibition of human DJM-1 cell growth in a cell viability assay.

EKVX = details: Homo sapiens, EKVX
Description: SANGER: Inhibition of human EKVX cell growth in a cell viability assay.

EW-1 = details: Homo sapiens, EW-1
Description: SANGER: Inhibition of human EW-1 cell growth in a cell viability assay.

EW-18 = details: Homo sapiens, EW-18
Description: SANGER: Inhibition of human EW-18 cell growth in a cell viability assay.

GB-1 = details: Homo sapiens, GB-1
Description: SANGER: Inhibition of human GB-1 cell growth in a cell viability assay.

GCIY = details: Homo sapiens, GCIY
Description: SANGER: Inhibition of human GCIY cell growth in a cell viability assay.

GI-1 = details: Homo sapiens, GI-1
Description: SANGER: Inhibition of human GI-1 cell growth in a cell viability assay.

GR-ST = details: Homo sapiens, GR-ST
Description: SANGER: Inhibition of human GR-ST cell growth in a cell viability assay.

HCE-T = details: Homo sapiens, HCE-T
Description: SANGER: Inhibition of human HCE-T cell growth in a cell viability assay.

HT-144 = details: Homo sapiens, HT-144
Description: SANGER: Inhibition of human HT-144 cell growth in a cell viability assay.

JVM-2 = details: Homo sapiens, JVM-2
Description: SANGER: Inhibition of human JVM-2 cell growth in a cell viability assay.

JVM-3 = details: Homo sapiens, JVM-3
Description: SANGER: Inhibition of human JVM-3 cell growth in a cell viability assay.

KALS-1 = details: Homo sapiens, KALS-1
Description: SANGER: Inhibition of human KALS-1 cell growth in a cell viability assay.

KARPAS-299 = details: Homo sapiens, KARPAS-299
Description: SANGER: Inhibition of human KARPAS-299 cell growth in a cell viability assay.

KGN = details: Homo sapiens, KGN
Description: SANGER: Inhibition of human KGN cell growth in a cell viability assay.

KNS-42 = details: Homo sapiens, KNS-42
Description: SANGER: Inhibition of human KNS-42 cell growth in a cell viability assay.

KP-N-YS = details: Homo sapiens, KP-N-YS
Description: SANGER: Inhibition of human KP-N-YS cell growth in a cell viability assay.

LB2241-RCC = details: Homo sapiens, LB2241-RCC
Description: SANGER: Inhibition of human LB2241-RCC cell growth in a cell viability assay.

LS-1034 = details: Homo sapiens, LS-1034
Description: SANGER: Inhibition of human LS-1034 cell growth in a cell viability assay.

LS-513 = details: Homo sapiens, LS-513
Description: SANGER: Inhibition of human LS-513 cell growth in a cell viability assay.

MHH-NB-11 = details: Homo sapiens, MHH-NB-11
Description: SANGER: Inhibition of human MHH-NB-11 cell growth in a cell viability assay.

MHH-PREB-1 = details: Homo sapiens, MHH-PREB-1
Description: SANGER: Inhibition of human MHH-PREB-1 cell growth in a cell viability assay.

MMAC-SF = details: Homo sapiens, MMAC-SF
Description: SANGER: Inhibition of human MMAC-SF cell growth in a cell viability assay.

MOLT-4 = details: Homo sapiens, MOLT-4
Description: SANGER: Inhibition of human MOLT-4 cell growth in a cell viability assay.

MSTO-211H = details: Homo sapiens, MSTO-211H
Description: SANGER: Inhibition of human MSTO-211H cell growth in a cell viability assay.

Mo = details: Homo sapiens, Mo
Description: SANGER: Inhibition of human Mo-T cell growth in a cell viability assay.

NB5 = details: Homo sapiens, NB5
Description: SANGER: Inhibition of human NB5 cell growth in a cell viability assay.

NB69 = details: Homo sapiens, NB69
Description: SANGER: Inhibition of human NB69 cell growth in a cell viability assay.

NCI-H1304 = details: Homo sapiens, NCI-H1304
Description: SANGER: Inhibition of human NCI-H1304 cell growth in a cell viability assay.

NCI-H23 = details: Homo sapiens, NCI-H23
Description: SANGER: Inhibition of human NCI-H23 cell growth in a cell viability assay.

NCI-H510A = details: Homo sapiens, NCI-H510A
Description: SANGER: Inhibition of human NCI-H510A cell growth in a cell viability assay.

NCI-H747 = details: Homo sapiens, NCI-H747
Description: SANGER: Inhibition of human NCI-H747 cell growth in a cell viability assay.

NTERA-2-cl-D1 = details: Homo sapiens, NTERA-2-cl-D1
Description: SANGER: Inhibition of human NTERA-S-cl-D1 cell growth in a cell viability assay.

OCI-AML2 = details: Homo sapiens, OCI-AML2
Description: SANGER: Inhibition of human OCI-AML2 cell growth in a cell viability assay.

OS-RC-2 = details: Homo sapiens, OS-RC-2
Description: SANGER: Inhibition of human OS-RC-2 cell growth in a cell viability assay.

P30-OHK = details: Homo sapiens, P30-OHK
Description: SANGER: Inhibition of human P30-OHK cell growth in a cell viability assay.

Ramos-2G6-4C10 = details: Homo sapiens, Ramos-2G6-4C10
Description: SANGER: Inhibition of human Ramos-2G6-4C10 cell growth in a cell viability assay.

SCC-15 = details: Homo sapiens, SCC-15
Description: SANGER: Inhibition of human SCC-15 cell growth in a cell viability assay.

SK-MEL-1 = details: Homo sapiens, SK-MEL-1
Description: SANGER: Inhibition of human SK-MEL-1 cell growth in a cell viability assay.

A388 = details: Homo sapiens, A388
Description: SANGER: Inhibition of human A388 cell growth in a cell viability assay.

A4-Fuk = details: Homo sapiens, A4-Fuk
Description: SANGER: Inhibition of human A4-Fuk cell growth in a cell viability assay.

TE-11 = details: Homo sapiens, TE-11
Description: SANGER: Inhibition of human TE-11 cell growth in a cell viability assay.

VA-ES-BJ = details: Homo sapiens, VA-ES-BJ
Description: SANGER: Inhibition of human VA-ES-BJ cell growth in a cell viability assay.

no-10 = details: Homo sapiens
Description: SANGER: Inhibition of human no-10 cell growth in a cell viability assay.

COLO-320-HSR = details: Homo sapiens, COLO-320-HSR
Description: SANGER: Inhibition of human COLO-320-HSR cell growth in a cell viability assay.

## Nc1cccc2c1CN(C1CCC(=O)NC1=O)C2=O (configuration not stated) [LENALIDOMIDE]
COLO-829
  pIC50: < 5.30
CP66-MEL
  pIC50: < 5.30
CTV-1
  pIC50: < 5.30
D283 Med
  pIC50: < 5.30
DJM-1
  pIC50: < 5.30
EKVX
  pIC50: < 5.30
EW-1
  pIC50: < 5.30
EW-18
  pIC50: < 5.30
GB-1
  pIC50: < 5.30
GCIY
  pIC50: < 5.30
GI-1
  pIC50: < 5.30
GR-ST
  pIC50: < 5.30
HCE-T
  pIC50: < 5.30
HT-144
  pIC50: < 5.30
JVM-2
  pIC50: < 5.30
JVM-3
  pIC50: < 5.30
KALS-1
  pIC50: < 5.30
KARPAS-299
  pIC50: < 5.30
KGN
  pIC50: < 5.30
KNS-42
  pIC50: < 5.30
KP-N-YS
  pIC50: < 5.30
LB2241-RCC
  pIC50: < 5.30
LS-1034
  pIC50: < 5.30
LS-513
  pIC50: < 5.30
MHH-NB-11
  pIC50: < 5.30
MHH-PREB-1
  pIC50: < 5.30
MMAC-SF
  pIC50: < 5.30
MOLT-4
  pIC50: < 5.30
MSTO-211H
  pIC50: < 5.30
Mo
  pIC50: < 5.30
NB5
  pIC50: < 5.30
NB69
  pIC50: < 5.30
NCI-H1304
  pIC50: < 5.30
NCI-H23
  pIC50: < 5.30
NCI-H510A
  pIC50: < 5.30
NCI-H747
  pIC50: < 5.30
NTERA-2-cl-D1
  pIC50: < 5.30
OCI-AML2
  pIC50: < 5.30
OS-RC-2
  pIC50: < 5.30
P30-OHK
  pIC50: < 5.30
Ramos-2G6-4C10
  pIC50: < 5.30
SCC-15
  pIC50: < 5.30
SK-MEL-1
  pIC50: < 5.30
A388
  pIC50: < 5.30
A4-Fuk
  pIC50: < 5.30
TE-11
  pIC50: < 5.30
VA-ES-BJ
  pIC50: < 5.30
no-10
  pIC50: < 5.30
COLO-320-HSR
  pIC50: < 5.30

## COc1cc(-c2nn([C@H]3CC[C@H](N4CCN(C(C)=O)CC4)CC3)c3ncnc(N)c23)ccc1NC(=O)c1cc2ccccc2n1C
COLO-829
  pIC50: < 5.29
CP66-MEL
  pIC50: < 5.29
CTV-1
  pIC50: > 7.70
D283 Med
  pIC50: < 5.29
DJM-1
  pIC50: < 5.29
EKVX
  pIC50: < 5.29
EW-1
  pIC50: < 5.29
EW-18
  pIC50: < 5.29
GB-1
  pIC50: 6.17
GCIY
  pIC50: 5.39
GI-1
  pIC50: < 5.29
GR-ST
  pIC50: < 5.29
HCE-T
  pIC50: < 5.29
HT-144
  pIC50: < 5.29
JVM-2
  pIC50: < 5.29
JVM-3
  pIC50: < 5.29
KALS-1
  pIC50: 5.60
KARPAS-299
  pIC50: < 5.29
KGN
  pIC50: 6.05
KNS-42
  pIC50: < 5.29
KP-N-YS
  pIC50: < 5.29
LB2241-RCC
  pIC50: < 5.29
LS-1034
  pIC50: < 5.29
LS-513
  pIC50: < 5.29
MHH-NB-11
  pIC50: < 5.29
MHH-PREB-1
  pIC50: 5.31
MMAC-SF
  pIC50: < 5.29
MOLT-4
  pIC50: < 5.29
MSTO-211H
  pIC50: < 5.29
Mo
  pIC50: < 5.29
NB5
  pIC50: < 5.29
NB69
  pIC50: 5.48
NCI-H1304
  pIC50: < 5.29
NCI-H23
  pIC50: < 5.29
NCI-H510A
  pIC50: 5.32
NCI-H747
  pIC50: 5.54
NTERA-2-cl-D1
  pIC50: < 5.29
OCI-AML2
  pIC50: 5.29
OS-RC-2
  pIC50: 6.12
P30-OHK
  pIC50: < 5.29
Ramos-2G6-4C10
  pIC50: < 5.29
SCC-15
  pIC50: < 5.29
SK-MEL-1
  pIC50: < 5.29
A388
  pIC50: 5.36
A4-Fuk
  pIC50: < 5.29
TE-11
  pIC50: 5.80
VA-ES-BJ
  pIC50: < 5.29
no-10
  pIC50: 5.66
COLO-320-HSR
  pIC50: < 5.29

## CC(=O)O[C@H]1C(=O)[C@@]2(C)[C@H]([C@H](OC(=O)c3ccccc3)[C@]3(O)C[C@H](OC(=O)[C@H](O)[C@@H](NC(=O)c4ccccc4)c4ccccc4)C(C)=C1C3(C)C)[C@]1(OC(C)=O)CO[C@@H]1C[C@@H]2O [PACLITAXEL]
COLO-829
  pIC50: < 6.99
CP66-MEL
  pIC50: < 6.99
CTV-1
  pIC50: 7.83
D283 Med
  pIC50: < 6.99
DJM-1
  pIC50: 8.28
EKVX
  pIC50: < 6.99
EW-1
  pIC50: 8.43
EW-18
  pIC50: < 6.99
GB-1
  pIC50: 7.44
GCIY
  pIC50: < 6.99
GI-1
  pIC50: 7.86
GR-ST
  pIC50: 7.25
HCE-T
  pIC50: 7.68
HT-144
  pIC50: 8.10
JVM-2
  pIC50: < 6.99
JVM-3
  pIC50: < 6.99
KALS-1
  pIC50: 8.51
KARPAS-299
  pIC50: 7.40
KGN
  pIC50: 8.15
KNS-42
  pIC50: 8.05
KP-N-YS
  pIC50: < 6.99
LB2241-RCC
  pIC50: < 6.99
LS-1034
  pIC50: 7.10
LS-513
  pIC50: < 6.99
MHH-NB-11
  pIC50: < 6.99
MHH-PREB-1
  pIC50: 7.66
MMAC-SF
  pIC50: 7.34
MOLT-4
  pIC50: 8.83
MSTO-211H
  pIC50: < 6.99
Mo
  pIC50: < 6.99
NB5
  pIC50: < 6.99
NB69
  pIC50: < 6.99
NCI-H1304
  pIC50: 7.28
NCI-H23
  pIC50: < 6.99
NCI-H510A
  pIC50: 8.18
NCI-H747
  pIC50: 7.53
NTERA-2-cl-D1
  pIC50: 8.68
OCI-AML2
  pIC50: 8.07
OS-RC-2
  pIC50: 7.11
P30-OHK
  pIC50: < 6.99
Ramos-2G6-4C10
  pIC50: < 6.99
SCC-15
  pIC50: < 6.99
SK-MEL-1
  pIC50: < 6.99
A388
  pIC50: 8.06
A4-Fuk
  pIC50: 8.21
TE-11
  pIC50: 8.91
VA-ES-BJ
  pIC50: 8.52
no-10
  pIC50: 8.44
COLO-320-HSR
  pIC50: < 6.99
